Measured values: patent US12180187B2, “1-phenyl-5-azinylpyrazolyl-3-oxyalkyl acids and their use for controlling unwanted plant growth” (BAYER AKTIENGESELLSCHAFT, priority 2019, dated 2024)

Assays:
POLCO = assay: Pre-emergence action at 320 g/ha against POLCO; assay type: in vivo, Fallopia convolvulus (Polygonum convolvulus); settings: visual scoring after about 3 weeks vs untreated controls
How it was run: (§1)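 Percent herbicidal activity was assessed by eye roughly three weeks post-application, comparing with untreated plants. Treatment consisted of applying formulated compound in water plus 0.5% additive to covering soil at 600 l/ha before emergence.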

VIOTR = assay: Pre-emergence action at 320 g/ha against VIOTR; assay type: in vivo, Viola tricolor; settings: dosage 320 g/ha
How it was run: as §1

LOLRI [1] = assay: Pre-emergence action at 320 g/ha against LOLRI; assay type: in vivo, Lolium rigidum; settings: visual scoring after about 3 weeks vs untreated controls
Excerpt: (§2) b) Seeds of monocotyledonous and dicotyledonous weed plants and crop plants are placed in plastic or organic planting pots and covered with soil. The compounds of the invention, formulated in the form of wettable powders (WP) or as emulsion concentrates (EC), are then applied onto the surface of the covering soil as aqueous suspension or emulsion with addition of 0.5% additive at a water application rate of 600 l/ha (converted). After the treatment, the pots are placed in a greenhouse and kept under good growth conditions for the trial plants. After about 3 weeks, the effect of the preparations is scored visually in comparison with untreated controls as percentages. For example, 100% activity=the plants have died, 0% activity=like control plants. Tables 13 to 26 below show the effects of selected compounds of the general formula (I) on various harmful plants and at an application rate corresponding to 320 g/ha, which were obtained by the experimental procedure mentioned above.

ECHGC = assay: Pre-emergence action at 320 g/ha against ECHGC; assay type: in vivo, Echinochloa crus-galli; settings: visual scoring after about 3 weeks vs untreated controls
Excerpt: as §2

SETVI [2] = assay: Pre-emergence action at 320 g/ha against SETVI; assay type: in vivo, Setaria viridis; settings: visual scoring after about 3 weeks vs untreated controls
Excerpt: as §2

AMARE [3] = assay: Pre-emergence action at 320 g/ha against AMARE; assay type: in vivo, Amaranthus retroflexus; settings: visual scoring after about 3 weeks vs untreated controls
How it was run: as §1

ALOMY [4] = assay: Pre-emergence action at 320 g/ha against ALOMY; assay type: in vivo, Alopecurus myosuroides; settings: scored visually after about 3 weeks vs untreated controls (100% = plants have died)
How it was run: as §1

MATIN [5] = assay: Pre-emergence action at 320 g/ha against MATIN; assay type: in vivo, Tripleurospermum inodorum (Matricaria inodora); settings: visual scoring after about 3 weeks vs untreated controls
Excerpt: as §2

AVEFA = assay: Pre-emergence action at 320 g/ha against AVEFA; assay type: in vivo; settings: visual scoring after about 3 weeks vs untreated controls
Excerpt: as §2

VERPE [6] = assay: Pre-emergence action at 320 g/ha against VERPE; assay type: in vivo, Veronica persica; settings: visual scoring after about 3 weeks vs untreated controls
Excerpt: as §2

LOLRI [7] = assay: Post-emergence action against LOLRI, 1.28 kg/ha; assay type: in vivo, Lolium rigidum; settings: dosage 1280 g/ha, visual rating about 3 weeks after treatment vs untreated controls
Protocol: (§3) • a) Seeds of mono- and dicotyledonous weed plants are placed in plastic pots in sandy loam soil (twin sowing with one species each of mono- or dicotyledonous weed plants per pot), covered with soil and cultivated in a greenhouse under controlled growth conditions. 2 to 3 weeks after sowing, the test plants are treated at the one-leaf stage. The compounds of the invention, formulated in the form of wettable powders (WP) or as emulsion concentrates (EC), are applied to the green parts of the plants as aqueous suspension or emulsion with addition of 0.5% additive at a water application rate equivalent to 600 litres per hectare. After the test plants have been kept in the greenhouse under optimum growth conditions for about 3 weeks, the activity of the preparations is rated visually in comparison to untreated controls. For example, 100% activity=the plants have died, 0% activity=like control plants. As shown by the results, compounds of the general formula (I) of the invention, in post-emergence treatment, have very good herbicidal efficacy (90% to 100% herbicidal action) against harmful plants such as Abutilon theophrasti, Digitaria sanguinalis, Echinochloa crus-galli, Matricaria inodora, Poa annua, at an application rate of 1.28 kg of active substance per hectare.

ALOMY [8] = assay: Pre-emergence action against ALOMY, 1280 g/ha; assay type: in vivo, Alopecurus myosuroides; settings: visual scoring after about 3 weeks vs untreated controls, 100% = plants have died, 0% = like control plants
How it was run: (§4)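 Activity was scored visually as percent versus untreated controls about 3 weeks after treatment (100% = dead plants, 0% = control-like). Compounds, formulated as wettable powders or emulsion concentrates, were sprayed onto the covering soil over freshly sown seeds in sandy loam, with 0.5% additive and 600 L/ha water.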

ECHCG [9] = assay: Post-emergence action against ECHCG, 1.28 kg/ha; assay type: in vivo, Echinochloa crus-galli; settings: dosage 1280 g/ha, visual rating about 3 weeks after treatment vs untreated controls
How it was run: (§5)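 Visual rating against untreated plants about 3 weeks after spraying gives % activity, where 0% means like controls and 100% means plants died. Plants were treated post-emergence at the one-leaf stage with compound formulated as wettable powder or emulsion concentrate, applied at 600 L water/ha plus 0.5% additive.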

SETVI [10] = assay: Pre-emergence action against SETVI, 1280 g/ha; assay type: in vivo, Setaria viridis; settings: visual scoring after about 3 weeks vs untreated controls, 100% = plants have died, 0% = like control plants
How it was run: as §4

STEME [11] = assay: Post-emergence action against STEME, 1.28 kg/ha; assay type: in vivo, Stellaria media; settings: dosage 1280 g/ha, visual rating about 3 weeks after treatment vs untreated controls (100% = plants died)
How it was run: as §5

DIGSA [12] = assay: Pre-emergence action against DIGSA, 1280 g/ha; assay type: in vivo, Digitaria sanguinalis; settings: visual scoring after about 3 weeks vs untreated controls, 100% = plants have died, 0% = like control plants
How it was run: as §4

DIGSA [13] = assay: Post-emergence action against DIGSA, 1.28 kg/ha; assay type: in vivo, Digitaria sanguinalis; settings: dosage 1280 g/ha, visual rating about 3 weeks after treatment vs untreated controls
How it was run: as §5

AMARE [14] = assay: Post-emergence action against AMARE, 1.28 kg/ha; assay type: in vivo, Amaranthus retroflexus; settings: dosage 1280 g/ha, visual rating about 3 weeks after treatment vs untreated controls (100% = plants died)
How it was run: as §5

VERPE [15] = assay: Post-emergence action against VERPE, 1.28 kg/ha; assay type: in vivo, Veronica persica; settings: dosage 1280 g/ha, visual rating about 3 weeks after treatment vs untreated controls (100% = plants died)
How it was run: as §5

AMARE [16] = assay: Pre-emergence action against AMARE, 1280 g/ha; assay type: in vivo, Amaranthus retroflexus; settings: scored visually after about 3 weeks vs untreated controls (100% = plants have died)
How it was run: as §4

STEME [17] = assay: Pre-emergence action against STEME, 1280 g/ha; assay type: in vivo, Stellaria media; settings: scored visually after about 3 weeks vs untreated controls (100% = plants have died)
How it was run: as §4

POAAN [18] = assay: Pre-emergence action against POAAN, 1280 g/ha; assay type: in vivo, Poa annua; settings: visual scoring after about 3 weeks vs untreated controls, 100% = plants have died, 0% = like control plants
How it was run: as §4

LOLRI [19] = assay: Pre-emergence action against LOLRI, 1280 g/ha; assay type: in vivo, Lolium rigidum; settings: visual scoring after about 3 weeks vs untreated controls, 100% = plants have died, 0% = like control plants
How it was run: as §4

MATIN [20] = assay: Pre-emergence action against MATIN, 1280 g/ha; assay type: in vivo, Tripleurospermum inodorum (Matricaria inodora); settings: scored visually after about 3 weeks vs untreated controls (100% = plants have died)
How it was run: as §4

ABUTH = assay: Post-emergence action against ABUTH, 1.28 kg/ha; assay type: in vivo, Abutilon theophrasti; settings: dosage 1280 g/ha, visual rating about 3 weeks after treatment vs untreated controls (100% = plants died)
How it was run: as §5

POAAN [21] = assay: Post-emergence action against POAAN, 1.28 kg/ha; assay type: in vivo, Poa annua; settings: dosage 1280 g/ha, visual rating about 3 weeks after treatment vs untreated controls
How it was run: as §5

ECHCG [22] = assay: Pre-emergence action against ECHCG, 1280 g/ha; assay type: in vivo, Echinochloa crus-galli; settings: visual scoring after about 3 weeks vs untreated controls, 100% = plants have died, 0% = like control plants
How it was run: as §4

SETVI [23] = assay: Post-emergence action against SETVI, 1.28 kg/ha; assay type: in vivo, Setaria viridis; settings: dosage 1280 g/ha, visual rating about 3 weeks after treatment vs untreated controls
Protocol: as §3

ALOMY [24] = assay: Post-emergence action against ALOMY, 1.28 kg/ha; assay type: in vivo, Alopecurus myosuroides; settings: dosage 1280 g/ha, visual rating about 3 weeks after treatment vs untreated controls
How it was run: as §5

MATIN [25] = assay: Post-emergence action against MATIN, 1.28 kg/ha; assay type: in vivo, Tripleurospermum inodorum (Matricaria inodora); settings: dosage 1280 g/ha, visual rating about 3 weeks after treatment vs untreated controls (100% = plants died)
How it was run: as §5

VERPE [26] = assay: Pre-emergence action against VERPE, 1280 g/ha; assay type: in vivo, Veronica persica; settings: scored visually after about 3 weeks vs untreated controls (100% = plants have died)
How it was run: as §4

DIGSA [27] = assay: Pre-emergence action at 320 g/ha against DIGSA; assay type: in vivo, Digitaria sanguinalis; settings: visual scoring after about 3 weeks vs untreated controls
Excerpt: as §2

## COC(=O)C1CCCN1C(=O)COc1nn(-c2ccccc2F)c(-c2ccc(F)nc2)c1Br (stereo not drawn) [Example X-016]
POLCO
  Pre-emergence action against POLCO in %: 80%
VIOTR
  Pre-emergence action against VIOTR in %: 100%
LOLRI [1]
  Pre-emergence action against LOLRI in %: 90%
ECHGC
  Pre-emergence action against ECHGC in %: 90%
SETVI [2]
  Pre-emergence action against SETVI in %: 100%
AMARE [3]
  Pre-emergence action against AMARE in %: 100%
ALOMY [4]
  Pre-emergence action at 320 g/ha against ALOMY in %: 100%
MATIN [5]
  Pre-emergence action against MATIN in %: 90%
AVEFA
  Pre-emergence action against AVEFA in %: 90%
VERPE [6]
  Pre-emergence action against VERPE in %: 100%

## O=C(COc1nn(-c2ccccc2F)c(-c2ccc(F)nc2)c1Br)NO [Example X-023]
LOLRI [7]
  Post-emergence action against LOLRI: 100%
ALOMY [8]
  Pre-emergence action against ALOMY: 90%
ECHCG [9]
  Post-emergence action against ECHCG: 100%
SETVI [10]
  Pre-emergence action against SETVI: 100%
STEME [11]
  Post-emergence action against STEME: 100%
DIGSA [12]
  Pre-emergence action against DIGSA: 100%
DIGSA [13]
  Post-emergence action against DIGSA: 100%
AMARE [14]
  Post-emergence action against AMARE: 100%
VERPE [15]
  Post-emergence action against VERPE: 100%
AMARE [16]
  Pre-emergence action against AMARE: 100%
STEME [17]
  Pre-emergence action against STEME: 100%
POAAN [18]
  Pre-emergence action against POAAN: 100%
LOLRI [19]
  Pre-emergence action against LOLRI: 100%
MATIN [20]
  Pre-emergence action against MATIN: 100%
ABUTH
  Post-emergence action against ABUTH: 90%
POAAN [21]
  Post-emergence action against POAAN: 100%
ECHCG [22]
  Pre-emergence action against ECHCG: 100%
SETVI [23]
  Post-emergence action against SETVI: 90%
ALOMY [24]
  Post-emergence action against ALOMY: 100%
MATIN [25]
  Post-emergence action against MATIN: 100%
VERPE [26]
  Pre-emergence action against VERPE: 100%

## COC(=O)[C@@H](C)Oc1nn(-c2ccccc2)c(-c2cccnc2)c1Cl [VII-041]
VIOTR
  Pre-emergence action against VIOTR in %: 80%
LOLRI [1]
  Pre-emergence action against LOLRI in %: 90%
ECHGC
  Pre-emergence action against ECHGC in %: 80%
AMARE [3]
  Pre-emergence action against AMARE in %: 100%
ALOMY [4]
  Pre-emergence action at 320 g/ha against ALOMY in %: 90%
MATIN [5]
  Pre-emergence action against MATIN in %: 100%
AVEFA
  Pre-emergence action against AVEFA in %: 80%
VERPE [6]
  Pre-emergence action against VERPE in %: 100%

## O=C(O)C(F)Oc1nn(-c2ccccc2F)c(-c2ccc(F)nc2)c1Br (stereo not drawn) [VII-057-a]
POLCO
  Pre-emergence action against POLCO in %: 80%
VIOTR
  Pre-emergence action against VIOTR in %: 100%
LOLRI [1]
  Pre-emergence action against LOLRI in %: 90%
ECHGC
  Pre-emergence action against ECHGC in %: 80%
SETVI [2]
  Pre-emergence action against SETVI in %: 100%
AMARE [3]
  Pre-emergence action against AMARE in %: 100%
DIGSA [27]
  Pre-emergence action against DIGSA in %: 100%
MATIN [5]
  Pre-emergence action against MATIN in %: 90%
AVEFA
  Pre-emergence action against AVEFA in %: 80%
